Results from PubChem BioAssay AID1919006 (Molecular Pharmacology Branch, DTP, NCI, 2023).
Each block holds one compound with its values, some of them ahead of it.

System: 885512-296-R-J2-PDC complex spheroid growth, % test/control
Assay: Anticancer human tumor 885512-296-R-J2-PDC patient-derived breast carcinoma cell line growth inhibition [AhR]
Conditions: for IC50: curve of first compound; for viability, T/C: stronger effect = lower value
In short: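 Agents were dosed in half-log steps down from roughly clinical Cmax, or from 10 microM where Cmax was unknown, alone and with AhR antagonists. Read-out: percent test/control growth of tumor spheroids containing HUVEC and MSC stromal cells.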

[1] = second compound 0.1 µM, first compound 0.0316 µM
[2] = second compound 0.1 µM, first compound 0.1 µM
[3] = second compound 0.1 µM, first compound 0.316 µM
[4] = second compound 0.1 µM, first compound 1 µM
[5] = second compound 0.1 µM, first compound 3.16 µM
[6] = second compound 0.1 µM, first compound 10 µM
[7] = second compound 0.316 µM, first compound 0.0316 µM
[8] = second compound 0.316 µM, first compound 0.1 µM
[9] = second compound 0.316 µM, first compound 0.316 µM
[10] = second compound 0.316 µM, first compound 1 µM
[11] = second compound 0.316 µM, first compound 3.16 µM
[12] = second compound 0.316 µM, first compound 10 µM
[13] = second compound 1 µM, first compound 0.0316 µM
[14] = second compound 1 µM, first compound 0.1 µM
[15] = second compound 1 µM, first compound 0.316 µM
[16] = second compound 1 µM, first compound 1 µM
[17] = second compound 1 µM, first compound 3.16 µM
[18] = second compound 1 µM, first compound 10 µM
[19] = second compound 3.16 µM, first compound 0.0316 µM
[20] = second compound 3.16 µM, first compound 0.1 µM
[21] = second compound 3.16 µM, first compound 0.316 µM
[22] = second compound 3.16 µM, first compound 1 µM
[23] = second compound 3.16 µM, first compound 3.16 µM
[24] = second compound 3.16 µM, first compound 10 µM
[25] = second compound 10 µM, first compound 0.0316 µM
[26] = second compound 10 µM, first compound 0.1 µM
[27] = second compound 10 µM, first compound 0.316 µM
[28] = second compound 10 µM, first compound 1 µM
[29] = second compound 10 µM, first compound 3.16 µM
[30] = second compound 10 µM, first compound 10 µM
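Further: spheroids exposed to compounds for seven days.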

IC50 (second compound 0.1 µM): 4210 nM
IC50 (second compound 0.316 µM): 4240 nM
IC50 (second compound 1 µM): 4140 nM
IC50 (second compound 3.16 µM): 3050 nM
IC50 (second compound 10 µM): 288 nM
Structure (SMILES): CC1(C)CCC(CN2CCN(c3ccc(C(=O)NS(=O)(=O)c4ccc(NCC5CCOCC5)c([N+](=O)[O-])c4)c(Oc4cnc5[nH]ccc5c4)c3)CC2)=C(c2ccc(Cl)cc2)C1 + Cc1ccccc1N=Nc1ccc(NC(=O)c2ccnn2C)c(C)c1
viability, T/C [1]: 107%
viability, T/C [2]: 85.4%
viability, T/C [3]: 103%
viability, T/C [4]: 90.2%
viability, T/C [5]: 61.4%
viability, T/C [6]: 16.1%
viability, T/C [7]: 109%
viability, T/C [8]: 116%
viability, T/C [9]: 102%
viability, T/C [10]: 85.1%
viability, T/C [11]: 63.7%
viability, T/C [12]: 15.8%
viability, T/C [13]: 97.9%
viability, T/C [14]: 97.8%
viability, T/C [15]: 94.2%
viability, T/C [16]: 86%
viability, T/C [17]: 60.4%
viability, T/C [18]: 15.5%
viability, T/C [19]: 93.8%
viability, T/C [20]: 83.1%
viability, T/C [21]: 83.3%
viability, T/C [22]: 73.3%
viability, T/C [23]: 48.3%
viability, T/C [24]: 14.9%
viability, T/C [25]: 46.4%
viability, T/C [26]: 53.8%
viability, T/C [27]: 53.2%
viability, T/C [28]: 44.6%
viability, T/C [29]: 40.2%
viability, T/C [30]: 15.7%

IC50 (second compound 0.1 µM): 4100 nM
IC50 (second compound 0.316 µM): > 10000 nM
IC50 (second compound 1 µM): 5480 nM
IC50 (second compound 3.16 µM): 1980 nM
IC50 (second compound 10 µM): < 31.6 nM
Structure (SMILES): COc1cc(Nc2ncc3c(n2)-c2ccc(Cl)cc2C(c2c(F)cccc2OC)=NC3)ccc1C(=O)O + Cc1ccccc1N=Nc1ccc(NC(=O)c2ccnn2C)c(C)c1
viability, T/C [1]: 61.3%
viability, T/C [2]: 51.4%
viability, T/C [3]: 59.2%
viability, T/C [4]: 59.2%
viability, T/C [5]: 52.2%
viability, T/C [6]: 38.9%
viability, T/C [7]: 62.9%
viability, T/C [8]: 48.8%
viability, T/C [9]: 57.8%
viability, T/C [10]: 50.6%
viability, T/C [11]: 53.5%
viability, T/C [12]: 47.6%
viability, T/C [13]: 56.8%
viability, T/C [14]: 54.8%
viability, T/C [15]: 65.9%
viability, T/C [16]: 58.1%
viability, T/C [17]: 46.2%
viability, T/C [18]: 49%
viability, T/C [19]: 51.4%
viability, T/C [20]: 46.6%
viability, T/C [21]: 55%
viability, T/C [22]: 54.4%
viability, T/C [23]: 47.1%
viability, T/C [24]: 43.3%
viability, T/C [25]: 45.6%
viability, T/C [26]: 40.9%
viability, T/C [27]: 40.6%
viability, T/C [28]: 39.6%
viability, T/C [29]: 36.5%
viability, T/C [30]: 37.7%

IC50 (second compound 0.1 µM): 91.3 nM
IC50 (second compound 0.316 µM): > 100 nM
IC50 (second compound 1 µM): > 100 nM
IC50 (second compound 3.16 µM): > 100 nM
IC50 (second compound 10 µM): < 0.316 nM
Structure (SMILES): Cn1ncnc1C1c2n[nH]c(=O)c3cc(F)cc(c23)NC1c1ccc(F)cc1 (stereo not given) + Cc1ccccc1N=Nc1ccc(NC(=O)c2ccnn2C)c(C)c1
viability, T/C (second compound 0.1 µM, first compound 0.000316 µM): 85.6%
viability, T/C (second compound 0.1 µM, first compound 0.001 µM): 99.2%
viability, T/C (second compound 0.1 µM, first compound 0.00316 µM): 89.9%
viability, T/C (second compound 0.1 µM, first compound 0.01 µM): 93%
viability, T/C [1]: 68.7%
viability, T/C [2]: 48.4%
viability, T/C (second compound 0.316 µM, first compound 0.000316 µM): 110%
viability, T/C (second compound 0.316 µM, first compound 0.001 µM): 94.5%
viability, T/C (second compound 0.316 µM, first compound 0.00316 µM): 86%
viability, T/C (second compound 0.316 µM, first compound 0.01 µM): 87.7%
viability, T/C [7]: 76.3%
viability, T/C [8]: 54.9%
viability, T/C (second compound 1 µM, first compound 0.000316 µM): 98.5%
viability, T/C (second compound 1 µM, first compound 0.001 µM): 82.9%
viability, T/C (second compound 1 µM, first compound 0.00316 µM): 96.6%
viability, T/C (second compound 1 µM, first compound 0.01 µM): 83.9%
viability, T/C [13]: 67.5%
viability, T/C [14]: 53.8%
viability, T/C (second compound 3.16 µM, first compound 0.000316 µM): 77.6%
viability, T/C (second compound 3.16 µM, first compound 0.001 µM): 87.5%
viability, T/C (second compound 3.16 µM, first compound 0.00316 µM): 93%
viability, T/C (second compound 3.16 µM, first compound 0.01 µM): 83.5%
viability, T/C [19]: 67.4%
viability, T/C [20]: 52.1%
viability, T/C (second compound 10 µM, first compound 0.000316 µM): 50.1%
viability, T/C (second compound 10 µM, first compound 0.001 µM): 49.9%
viability, T/C (second compound 10 µM, first compound 0.00316 µM): 46.5%
viability, T/C (second compound 10 µM, first compound 0.01 µM): 47.2%
viability, T/C [25]: 50.2%
viability, T/C [26]: 44.2%

Further lines, the compound ahead of its results:

Structure (SMILES): CCN(c1cc(-c2ccc(CN3CCOCC3)cc2)cc(C(=O)NCc2c(C)cc(C)[nH]c2=O)c1C)C1CCOCC1 + Cc1ccccc1N=Nc1ccc(NC(=O)c2ccnn2C)c(C)c1
IC50 (second compound 0.1 µM): > 3000 nM
IC50 (second compound 0.316 µM): > 3000 nM
IC50 (second compound 1 µM): > 3000 nM
IC50 (second compound 3.16 µM): > 3000 nM
IC50 (second compound 10 µM): 114 nM
viability, T/C (second compound 0.1 µM, first compound 0.00949 µM): 116%
viability, T/C (second compound 0.1 µM, first compound 0.03 µM): 111%
viability, T/C (second compound 0.1 µM, first compound 0.0949 µM): 104%
viability, T/C (second compound 0.1 µM, first compound 0.3 µM): 80.5%
viability, T/C (second compound 0.1 µM, first compound 0.949 µM): 78.8%
viability, T/C (second compound 0.1 µM, first compound 3 µM): 79%
viability, T/C (second compound 0.316 µM, first compound 0.00949 µM): 117%
viability, T/C (second compound 0.316 µM, first compound 0.03 µM): 110%
viability, T/C (second compound 0.316 µM, first compound 0.0949 µM): 94.5%
viability, T/C (second compound 0.316 µM, first compound 0.3 µM): 89.8%
viability, T/C (second compound 0.316 µM, first compound 0.949 µM): 80.8%
viability, T/C (second compound 0.316 µM, first compound 3 µM): 68.5%
viability, T/C (second compound 1 µM, first compound 0.00949 µM): 106%
viability, T/C (second compound 1 µM, first compound 0.03 µM): 108%
viability, T/C (second compound 1 µM, first compound 0.0949 µM): 108%
viability, T/C (second compound 1 µM, first compound 0.3 µM): 87.2%
viability, T/C (second compound 1 µM, first compound 0.949 µM): 71%
viability, T/C (second compound 1 µM, first compound 3 µM): 65.7%
viability, T/C (second compound 3.16 µM, first compound 0.00949 µM): 98.6%
viability, T/C (second compound 3.16 µM, first compound 0.03 µM): 95.5%
viability, T/C (second compound 3.16 µM, first compound 0.0949 µM): 78.8%
viability, T/C (second compound 3.16 µM, first compound 0.3 µM): 69.6%
viability, T/C (second compound 3.16 µM, first compound 0.949 µM): 57.8%
viability, T/C (second compound 3.16 µM, first compound 3 µM): 60.1%
viability, T/C (second compound 10 µM, first compound 0.00949 µM): 49.1%
viability, T/C (second compound 10 µM, first compound 0.03 µM): 62.3%
viability, T/C (second compound 10 µM, first compound 0.0949 µM): 47.9%
viability, T/C (second compound 10 µM, first compound 0.3 µM): 45.8%
viability, T/C (second compound 10 µM, first compound 0.949 µM): 43.3%
viability, T/C (second compound 10 µM, first compound 3 µM): 40.6%

Structure (SMILES): NS(=O)(=O)OCC1CC(n2ccc3c(NC4CCc5ccccc54)ncnc32)CC1O (stereo not given) + Cc1ccccc1N=Nc1ccc(NC(=O)c2ccnn2C)c(C)c1
IC50 (second compound 0.1 µM): 94.9 nM
IC50 (second compound 0.316 µM): 90.1 nM
IC50 (second compound 1 µM): 88.2 nM
IC50 (second compound 3.16 µM): 80.5 nM
IC50 (second compound 10 µM): 57.6 nM
viability, T/C [1]: 93.2%
viability, T/C [2]: 47.9%
viability, T/C [3]: 16.2%
viability, T/C [4]: 6.95%
viability, T/C [5]: 4.75%
viability, T/C [6]: 5.39%
viability, T/C [7]: 94.9%
viability, T/C [8]: 45.5%
viability, T/C [9]: 14.1%
viability, T/C [10]: 6.56%
viability, T/C [11]: 4.96%
viability, T/C [12]: 5.27%
viability, T/C [13]: 96.5%
viability, T/C [14]: 44.2%
viability, T/C [15]: 16.7%
viability, T/C [16]: 7.31%
viability, T/C [17]: 5.64%
viability, T/C [18]: 6.16%
viability, T/C [19]: 84.5%
viability, T/C [20]: 42%
viability, T/C [21]: 14.1%
viability, T/C [22]: 6.49%
viability, T/C [23]: 4.75%
viability, T/C [24]: 5.47%
viability, T/C [25]: 67%
viability, T/C [26]: 34.3%
viability, T/C [27]: 13.7%
viability, T/C [28]: 4.96%
viability, T/C [29]: 3.85%
viability, T/C [30]: 4.91%
